The results in this text go back to PubChem BioAssay (NCI).

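Compound exposure: 48 hours, 5 concentrations, 96-well plates. TGI: total growth inhibition.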

Common to all, as to assay: DTP human tumour cell line panel, 48 h
Test [1] deals with ACHN renal.
The subject of test [2] is NCI-H460 lung.
The subject of test [3] is SK-MEL-5 melanoma.
Test [4] deals with SNB-19 CNS.
Test [5] concerns NCI-H226 lung.
The subject of test [6] is SW-620 colon.
The test system of test [7] is SR leukemia.
The subject of test [8] is T-47D breast.
Test [9] deals with SF-539 CNS.
Test [10] deals with K-562 leukemia.
Test [11] has as its system MDA-MB-231 breast.
In test [12] the test system is RXF 393 renal.
Test [13] has as its system OVCAR-5 ovarian.
Test [14] deals with OVCAR-8 ovarian.
The subject of test [15] is HCT-116 colon.
The test system of test [16] is LOX IMVI melanoma.
The subject of test [17] is HCC-2998 colon.

On to `CCOC1=NC(C(F)(F)F)(C(F)(F)F)N=C(N2CCCCC2)O1`, for which the total growth inhibition concentration (TGI) in [1], in test [2], in test [3], in test [4], in test [5] and in test [6] was more than 100 µM each time. Also, the TGI in test [7], in test [8], in test [9], in test [10], in test [11] and in test [12] was more than 100 µM each time. The TGI in test [13], in test [14], in test [15] and in test [16] was more than 100 µM in each case.

As for `Clc1nc(Nc2nc3ccccc3[nH]2)nc(Cl)c1-c1ccccc1`, the TGI in [1] was 34.7 µM; in test [2], 28.7 µM; in [3], 53.5 µM; in test [4] it was more than 100 µM; in test [5], 46.4 µM; in [6], 35.6 µM. Also, the TGI was more than 100 µM in [7]; more than 100 µM in test [8]; 34.6 µM in test [9]; more than 100 µM in test [10]; 29.1 µM in test [11]; 35.6 µM in [12]. The TGI is 59.6 µM in [13], 69.4 µM in [14] and more than 100 µM in test [15].

For the compound `CO/N=C(\C(=O)[N-][n+]1cnn(CC(=O)O)c1)c1csc(N)n1`, the TGI in test [1], in [2], in test [3], in test [6], in test [7] and in test [8] was more than 10 µM in each case. Besides, the TGI in test [10], in [11], in [14], in test [17], in test [15] and in test [16] was more than 10 µM throughout.

In the case of `C(#C[C@@]12CCC[C@@H]1N(Cc1ccccc1)CO2)c1ccc2c(c1)OCO2`, the TGI in test [1], in [2], in test [4], in [5], in test [6] and in test [8] was more than 100 µM each time. Moreover, the TGI in [9], in test [10], in test [11], in test [12], in test [13] and in test [14] was more than 100 µM each time. Further, the TGI in test [17] and in [15] was more than 100 µM each time.

With `COc1ccc2c(c1)OC1c3ccccc3OCC21` (stereo unspecified), the TGI in [1], in test [2], in test [3], in test [4], in [5] and in test [6] was more than 100 µM throughout. Further, the TGI in test [8], in test [9], in test [10], in test [11], in test [12] and in [13] was more than 100 µM each time. Further, the TGI in [14], in test [17], in [15] and in test [16] was more than 100 µM throughout.

As to `C#CCOC(=O)[C@@H](C)c1ccc2cc(OC)ccc2c1`, the TGI in test [1], in test [2], in test [3], in test [4], in test [5] and in test [6] was more than 100 µM each time. The concentration for total growth inhibition (TGI) in test [7], in test [8], in test [9], in test [10], in test [11] and in [12] was more than 100 µM in each case. Also, the TGI in test [13], in [14], in test [15] and in test [16] was more than 100 µM in each case.

Consider `CCCCSC1=N/C(=C\c2ccc(N(C)C)cc2)C(Cl)=N1`, for which the TGI in [1], in [2], in [4], in test [5], in test [6] and in test [8] was more than 100 µM in each case. The TGI in test [9], in test [10], in test [11], in [12], in test [13] and in [14] was more than 100 µM each time. For the same compound, the TGI in test [17], in test [15] and in test [16] was more than 100 µM in each case.

As to `N[C@@H](Cc1ccc2oc3cc(=O)c4ccccc4c-3nc2c1)C(=O)O`, the TGI in test [1] is more than 100 µM; in [2], more than 100 µM; in test [3], 24.1 µM; in [4], 77.6 µM; in test [5], more than 100 µM; in [6] it was more than 100 µM. In addition, the TGI is 60.4 µM in test [7]; more than 100 µM in [8]; more than 100 µM in test [9]; more than 100 µM in [10]; more than 100 µM in [11]; more than 100 µM in [12]. In addition, the TGI in test [13], in test [14], in test [15] and in test [16] was more than 100 µM each time.

With `Cc1nn(C(=O)c2ccncc2)c2c1C(c1ccc([N+](=O)[O-])cc1)SC(N)=N2` (stereo unspecified), the TGI in [1], in [2], in [3], in [4], in test [5] and in test [6] was more than 100 µM each time. In addition, the TGI in test [7], in test [8], in test [9], in test [10], in [11] and in [12] was more than 100 µM each time. The TGI in test [13], in test [14], in [15] and in [16] was more than 100 µM in each case.

As a reminder, the TGI is the concentration giving total growth inhibition. A low value points to greater sensitivity of the cells.
